Assay type in all cases: in vivo
Experiment [1] concerns Echinochloa crus-galli (ECHCG). Briefly: Pre-emergence herbicidal activity, glasshouse pot test. To be noted: Echinochloa crus-galli, 312 h, rate 250 g/ha, evaluated after 13 days, 100=total damage to plant, 0=no damage to plant. As for the experimental part:
(§1) Seeds of a variety of test species were sown in standard soil in pots. After cultivation for one day (pre-emergence) or after 8 days cultivation (post-emergence) under controlled conditions in a glasshouse (at 24/16° C., day/night; 14 hours light; 65% humidity), the plants were sprayed with an aqueous spray solution derived from the formulation of the technical active ingredient in acetone/water (50:50) solution containing 0.5% Tween 20 (polyoxyethelyene sorbitan monolaurate, CAS RN 9005-64-5). The test plants were then grown in a glasshouse under controlled conditions in a glasshouse (at 24/16° C., day/night; 14 hours light; 65% humidity) and watered twice daily. After 13 days for pre and post-emergence, the test was evaluated (100=total damage to plant; 0=no damage to plant). Test Plants: Lolium perenne (LOLPE), Alopecurus myosuroides (ALOMY), Echinochloa crus-galli (ECHCG), and Avena fatua (AVEFA). Pre-Emergence Activity

Experiment [2] concerns Avena fatua (AVEFA). Described as above. To be noted: Avena fatua, 312 h, rate 250 g/ha, evaluated after 13 days, 100=total damage to plant, 0=no damage to plant. On the procedure: as §1
Experiment [3] deals with Lolium perenne (LOLPE). Described as above. The settings on record: Lolium perenne, 312 h, rate 250 g/ha, evaluated after 13 days, 100=total damage to plant, 0=no damage to plant. As for the experimental part:
as §1

For experiment [4], the system named is Alopecurus myosuroides (ALOMY). Described as above. To be noted: Alopecurus myosuroides, 312 h, rate 250 g/ha, evaluated after 13 days, 100=total damage to plant, 0=no damage to plant. As for the experimental part: as §1
In experiment [5] the test system is Echinochloa crus-galli (ECHCG). Briefly: Post-emergence herbicidal activity, glasshouse pot test. The settings on record: Echinochloa crus-galli, 312 h, rate 250 g/ha, evaluated after 13 days, 100=total damage to plant, 0=no damage to plant. As for the experimental part:
as §1, with “Post-Emergence” for “Pre-Emergence”

For experiment [6], the system named is Avena fatua (AVEFA). The description is as above. To be noted: Avena fatua, 312 h, rate 250 g/ha, evaluated after 13 days, 100=total damage to plant, 0=no damage to plant. On the procedure:
as §1, with “Post-Emergence” for “Pre-Emergence”

In experiment [7] the test system is Lolium perenne (LOLPE). The description is as above. To be noted: Lolium perenne, 312 h, rate 250 g/ha, evaluated after 13 days, 100=total damage to plant, 0=no damage to plant. On the procedure: as §1, with “Post-Emergence” for “Pre-Emergence”
The test system of experiment [8] is Alopecurus myosuroides (ALOMY). Described as above. To be noted: Alopecurus myosuroides, 312 h, rate 250 g/ha, evaluated after 13 days, 100=total damage to plant, 0=no damage to plant. On the procedure:
as §1, with “Post-Emergence” for “Pre-Emergence”

SMILES strings stand for the structures.

A word on the pest or weed control: it is how far the test organism was held down. Low values mean a weak effect, high ones a strong effect.

`Cc1cc(Oc2cccc(F)c2F)cc(C)c1C1=C(O)[C@H]2[C@@H](C1=O)[C@@H]1CC[C@H]2O1` [Compound A-8]: the pest or weed control at 250 g/ha in experiment [1] turned out to be 40%; in the experiment on Avena fatua (AVEFA) [2], 0%; in the experiment with Lolium perenne (LOLPE) [3] it was 30%; in experiment [4] it was 40%; in experiment [5] it was 90%; with Avena fatua (AVEFA) [6] it was 40%. Moreover, the pest or weed control at 250 g/ha (in the experiment on Lolium perenne (LOLPE) [7]; in experiment [8]) was 80% in each case.
Regarding `Cc1cc(Oc2cc(F)ccc2F)cc(C)c1C1=C(O)[C@H]2[C@@H](C1=O)[C@@H]1CC[C@H]2O1` [Compound A-9], the pest or weed control at 250 g/ha in experiment [1] is 50%; with Avena fatua (AVEFA) [2] it was 0%; in the experiment on Lolium perenne (LOLPE) [3] it was 60%; in experiment [4], 20%; in experiment [5] it was 90%; in the experiment with Avena fatua (AVEFA) [6], 40%. Moreover, the pest or weed control at 250 g/ha (in the experiment with Lolium perenne (LOLPE) [7]; in experiment [8]) was 60% in each case.
Regarding `Cc1cc(Oc2ccccc2Cl)cc(C)c1C1=C(O)[C@H]2[C@@H](C1=O)[C@@H]1CC[C@H]2O1` [Compound A-10], the pest or weed control at 250 g/ha in experiment [1] amounted to 10%; with Avena fatua (AVEFA) [2], 0%; in the experiment with Lolium perenne (LOLPE) [3], 20%; in experiment [4], 10%; in experiment [5], 40%; with Avena fatua (AVEFA) [6], 0%. Besides, the pest or weed control at 250 g/ha was 30% in the experiment on Lolium perenne (LOLPE) [7] and 10% in experiment [8].
As for `Cc1cc(Oc2ccc(Br)cc2)cc(C)c1C1=C(O)[C@H]2[C@@H](C1=O)[C@@H]1CC[C@H]2O1` [Compound A-11], the pest or weed control at 250 g/ha came out at 70% in experiment [1]; 90% in the experiment with Avena fatua (AVEFA) [2]; 100% in the experiment on Lolium perenne (LOLPE) [3]; 90% in experiment [4]; 100% in experiment [5]; 90% with Avena fatua (AVEFA) [6]. The pest or weed control at 250 g/ha (in the experiment with Lolium perenne (LOLPE) [7]; in experiment [8]) was 90% in each case.
With `Cc1cc(Oc2ccc(Br)cc2Cl)cc(C)c1C1=C(O)[C@H]2[C@@H](C1=O)[C@@H]1CC[C@H]2O1` [Compound A-12], the pest or weed control at 250 g/ha in experiment [1] amounted to 60%; in the experiment on Avena fatua (AVEFA) [2], 10%; with Lolium perenne (LOLPE) [3], 70%; in experiment [4] it was 40%; in experiment [5], 100%; in the experiment with Avena fatua (AVEFA) [6] it was 70%. The pest or weed control at 250 g/ha in the experiment on Lolium perenne (LOLPE) [7] came out at 70%; in experiment [8] it was 80%.
For the molecule `Cc1cc(Br)ccc1Oc1cc(C)c(C2=C(O)[C@H]3[C@@H](C2=O)[C@@H]2CC[C@H]3O2)c(C)c1` [Compound A-13], the pest or weed control at 250 g/ha was found to be 70% in experiment [1]; 0% in the experiment with Avena fatua (AVEFA) [2]; 60% in the experiment on Lolium perenne (LOLPE) [3]; 60% in experiment [4]; 50% in experiment [5]; 30% in the experiment with Avena fatua (AVEFA) [6]. Also, the values for the pest or weed control at 250 g/ha (with Lolium perenne (LOLPE) [7]; in experiment [8]) were 60% and 80%, respectively.
For `Cc1cc(Oc2cccc(Cl)c2)cc(C)c1C1=C(O)[C@H]2[C@@H](C1=O)[C@@H]1CC[C@H]2O1` [Compound A-14], the pest or weed control at 250 g/ha turned out to be 80% in experiment [1]; 0% in the experiment with Avena fatua (AVEFA) [2]; 70% with Lolium perenne (LOLPE) [3]; 40% in experiment [4]; 80% in experiment [5]; 30% with Avena fatua (AVEFA) [6]. Moreover, the pest or weed control at 250 g/ha (in the experiment with Lolium perenne (LOLPE) [7]; in experiment [8]) was 70% throughout.
With `Cc1cc(Oc2ccc(F)cc2)cc(C)c1C1=C(O)[C@H]2[C@@H](C1=O)[C@@H]1CC[C@H]2O1` [Compound A-15], the pest or weed control at 250 g/ha in experiment [1] was found to be 70%; in the experiment with Avena fatua (AVEFA) [2], 70%; with Lolium perenne (LOLPE) [3], 90%; in experiment [4], 60%; in experiment [5] it was 100%; in the experiment with Avena fatua (AVEFA) [6], 90%. Besides, the pest or weed control at 250 g/ha (in the experiment on Lolium perenne (LOLPE) [7]; in experiment [8]) was 90% each time.
With `Cc1cc(Oc2cnc3cc(Cl)ccc3n2)cc(C)c1C1=C(O)[C@H]2[C@H]3CC[C@H](C3)[C@H]2C1=O` [Compound A-16], the pest or weed control at 250 g/ha in experiment [1] amounted to 10%; in the experiment with Avena fatua (AVEFA) [2], 0%; in the experiment with Lolium perenne (LOLPE) [3], 0%; in experiment [4] it was 0%; in experiment [5], 60%; with Avena fatua (AVEFA) [6], 0%. In addition, the pest or weed control at 250 g/ha with Lolium perenne (LOLPE) [7] is 0%; in experiment [8], 30%.
With `Cc1cc(Oc2ccc(C(F)(F)F)cn2)cc(C)c1C1=C(O)[C@H]2[C@H]3CC[C@H](C3)[C@H]2C1=O` [Compound A-17, meso-(3aS,4S,7R,7aR)-2-[2,6-dimethyl-4-(5-trifluoromethylpyridin-2-yloxy)phenyl]-hexahydro-4,7-methanoindene-1,3-dione], the pest or weed control at 250 g/ha was found to be 30% in experiment [1]; 0% in the experiment on Avena fatua (AVEFA) [2]; 0% in the experiment with Lolium perenne (LOLPE) [3]; 0% in experiment [4]; 40% in experiment [5]; 10% with Avena fatua (AVEFA) [6]. For the same molecule, the pest or weed control at 250 g/ha (in the experiment with Lolium perenne (LOLPE) [7]; in experiment [8]) was 10% throughout.
Take `Cc1cc(Oc2ncc(Cl)cc2F)cc(C)c1C1=C(O)[C@H]2[C@H]3CC[C@H](C3)[C@H]2C1=O` [Compound A-18]: the pest or weed control at 250 g/ha in experiment [1] stood at 40%; in the experiment with Avena fatua (AVEFA) [2], 0%; in the experiment on Lolium perenne (LOLPE) [3], 0%; in experiment [4], 10%; in experiment [5] it was 70%; with Avena fatua (AVEFA) [6], 30%. Also, the values for the pest or weed control at 250 g/ha (with Lolium perenne (LOLPE) [7]; in experiment [8]) were 10% and 30%, respectively.
On to `Cc1cc(Oc2ccc(C(F)(F)F)cn2)cc(C)c1C1=C(O)C2C(C1=O)[C@H]1CC[C@@H]2CC1` (stereo partly shown) [Compound A-19], for which the pest or weed control at 250 g/ha in experiment [1] was found to be 10%; in the experiment on Avena fatua (AVEFA) [2], 0%; in the experiment on Lolium perenne (LOLPE) [3], 0%; in experiment [4] it was 0%; in experiment [5], 60%; with Avena fatua (AVEFA) [6], 10%. Besides, the pest or weed control at 250 g/ha with Lolium perenne (LOLPE) [7] turned out to be 0%; in experiment [8], 10%.
`Cc1cc(Oc2ncc(Cl)cc2F)cc(C)c1C1=C(O)C2C(C1=O)[C@H]1CC[C@@H]2CC1` (stereo partly shown) [Compound A-20, 2-[4-(5-chloro-3-fluoropyridin-2-yloxy)-2,6-dimethylphenyl]hexahydro-4,7-ethanoindene-1,3-dione]: the pest or weed control at 250 g/ha turned out to be 60% in experiment [1]; 0% in the experiment on Avena fatua (AVEFA) [2]; 20% in the experiment on Lolium perenne (LOLPE) [3]; 40% in experiment [4]; 70% in experiment [5]; 20% in the experiment with Avena fatua (AVEFA) [6]. In addition, the pest or weed control at 250 g/ha with Lolium perenne (LOLPE) [7] was 30%; in experiment [8] it was 50%.
Regarding `Cc1cc(Oc2cnc3cc(Cl)ccc3n2)cc(C)c1C1=C(O)C2C(C1=O)[C@H]1CC[C@@H]2CC1` (stereo partly shown) [Compound A-21], the pest or weed control at 250 g/ha was determined as 50% in experiment [1]; 0% in the experiment on Avena fatua (AVEFA) [2]; 30% with Lolium perenne (LOLPE) [3]; 10% in experiment [4]; 70% in experiment [5]; 0% in the experiment with Avena fatua (AVEFA) [6]. Further, the values for the pest or weed control at 250 g/ha (with Lolium perenne (LOLPE) [7]; in experiment [8]) were 0% and 10%, respectively.
